Drawing on BindingDB's records for doi:10.1111/cbdd.12580 (Sichuan University, 2015), this text covers IC50 for 13 compounds.

The target of one assay is T1, Acetylcholinesterase (Rattus norvegicus, UniProt P37136).
T1 sequence (P37136 whole entry): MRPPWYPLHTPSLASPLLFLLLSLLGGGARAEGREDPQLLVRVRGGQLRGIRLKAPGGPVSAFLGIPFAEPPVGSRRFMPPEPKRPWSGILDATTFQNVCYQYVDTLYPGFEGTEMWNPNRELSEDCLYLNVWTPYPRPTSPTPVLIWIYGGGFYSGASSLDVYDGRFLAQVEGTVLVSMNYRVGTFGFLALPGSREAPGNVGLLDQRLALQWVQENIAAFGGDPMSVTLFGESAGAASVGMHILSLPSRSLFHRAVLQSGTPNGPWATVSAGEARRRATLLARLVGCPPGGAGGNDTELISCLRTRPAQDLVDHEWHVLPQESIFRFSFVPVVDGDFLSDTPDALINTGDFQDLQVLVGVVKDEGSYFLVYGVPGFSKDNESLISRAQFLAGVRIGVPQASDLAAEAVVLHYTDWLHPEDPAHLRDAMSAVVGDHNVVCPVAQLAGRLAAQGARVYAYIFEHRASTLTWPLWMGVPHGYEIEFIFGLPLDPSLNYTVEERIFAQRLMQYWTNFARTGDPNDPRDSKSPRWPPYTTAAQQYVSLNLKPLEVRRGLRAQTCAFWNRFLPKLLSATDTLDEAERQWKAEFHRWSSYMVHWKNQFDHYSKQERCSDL
Nature of the assay: Modified Ellman Assay. As to the method:
(§1) Then, 5,5'-dithiobis-2-nitrobenzoic acid (DTNB, 0.2%, 30 μL) (J&K Scientific) was added.
Background: DTNB colorimetry detects thiols as they appear.

Assay [1] addresses Carboxylic ester hydrolase (Rattus norvegicus, UniProt Q9JKC1). Nature of the assay: Modified Ellman Assay. On the procedure:
as §1

Carboxylic ester hydrolase, sequence (Q9JKC1 whole entry): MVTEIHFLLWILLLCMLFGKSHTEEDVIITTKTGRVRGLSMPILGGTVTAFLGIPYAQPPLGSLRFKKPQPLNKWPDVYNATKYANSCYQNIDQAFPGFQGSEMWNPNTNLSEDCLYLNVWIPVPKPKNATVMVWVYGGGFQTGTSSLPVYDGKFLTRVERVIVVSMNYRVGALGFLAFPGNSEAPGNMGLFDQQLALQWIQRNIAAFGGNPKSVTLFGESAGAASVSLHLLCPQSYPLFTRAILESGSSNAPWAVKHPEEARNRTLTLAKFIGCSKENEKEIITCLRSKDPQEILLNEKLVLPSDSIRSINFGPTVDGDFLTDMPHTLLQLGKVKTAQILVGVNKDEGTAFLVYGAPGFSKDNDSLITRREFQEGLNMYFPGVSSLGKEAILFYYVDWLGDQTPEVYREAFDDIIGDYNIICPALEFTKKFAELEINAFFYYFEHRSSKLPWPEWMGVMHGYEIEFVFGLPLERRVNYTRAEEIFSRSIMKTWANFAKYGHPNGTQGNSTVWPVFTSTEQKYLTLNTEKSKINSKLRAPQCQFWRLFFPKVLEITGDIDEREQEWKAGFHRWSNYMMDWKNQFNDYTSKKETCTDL

As usually defined, the IC50 is the concentration needed to halve the response being measured. In the case of `O=C(Oc1ccc(-c2cc(=O)c3c(O)c(O)c(O)cc3o2)cc1)N1CCCCC1` [1-Piperidinecarboxylic acid-4-(5,6,7-trihydroxy-4-oxo-4H-1-benzopyran-2-yl)phenyl ester (7g)], the IC50 is 12.6 µM against Acetylcholinesterase and more than 100 µM in assay [1].

On to `O=C(Oc1ccc(-c2cc(=O)c3c(O)c(O)c(O)cc3o2)cc1)N1CCCC1` [1-Pyrrolidinecarboxylic acid-4-(5,6,7-trihydroxy-4-oxo-4H-1-benzopyran-2-yl)phenyl ester (7e)], for which the IC50 against Acetylcholinesterase is 40.7 µM; in assay [1] it was more than 100 µM. Take `O=C(Oc1ccc(-c2cc(=O)c3c(O)c(O)c(O)cc3o2)cc1)N1CCC(Cc2ccccc2)CC1` [4-(Phenylmethyl)-1-piperidinecarboxylic acid-4-(5,6,7-trihydroxy-4-oxo-4H-1-benzopyran-2-yl)phenyl ester (7h)]: the IC50 against Acetylcholinesterase was 62.2 µM; in assay [1], 35 µM.

As to `O=C(Oc1ccc(-c2cc(=O)c3c(O)c(O)c(O)cc3o2)cc1)N1CCOCC1` [4-Morpholinecarboxylic acid-4-(5,6,7-trihydroxy-4-oxo-4H-1-benzopyran-2-yl)phenyl ester (7f)], the values for the IC50 (on Acetylcholinesterase; in assay [1]) were 28.5 µM and more than 100 µM, respectively.

Regarding `O=c1cc(-c2ccc(O)cc2)oc2cc(O)c(O)c(O)c12` [5,6,7-trihydroxy-2-(4-hydroxyphenyl)-4H-chromen-4-one], the IC50 (on Acetylcholinesterase; in assay [1]) was more than 100 µM in each case. As to `CC(C)N(C(=O)Oc1ccc(-c2cc(=O)c3c(O)c(O)c(O)cc3o2)cc1)C(C)C` [N,N-bis(1-methylethyl)carbamic acid-4-(5,6,7-trihydroxy-4-oxo-4H-1-benzopyran-2-yl)phenyl ester (7c)], the IC50 at Acetylcholinesterase was 4 µM; in assay [1], 42 µM.

Turning to `CCN(CC)C(=O)Oc1ccc(-c2cc(=O)c3c(O)c(O)c(O)cc3o2)cc1` [N,N-diethylcarbamic acid-4-(5,6,7-trihydroxy-4-oxo-4H-1-benzopyran-2-yl)phenyl ester (7b)], the IC50 worked out at 1.2 µM against Acetylcholinesterase and 22.1 µM in assay [1]. For the compound `CCN(CC)C(=O)Oc1ccc(-c2cc(=O)c3c(OC)c(OC)c(OC)cc3o2)cc1` [N,N-diethylcarbamic acid-4-(5,6,7-trimethoxy-4-oxo-4H-1-benzopyran-2-yl)phenyl ester (7i)], the IC50 in assay [1] came out at 8.2 µM. Still for that read-out and setting: the figure for `CCN(CC)C(=O)Oc1ccc(-c2cc(=O)c3c(O)c(OC)c(OC)cc3o2)cc1` [N,N-diethylcarbamic acid-4-(5-hydroxy-6,7-dimethoxy-4-oxo-4H-1-benzopyran-2-yl)phenyl ester (7j)] is 22.6 µM.

Take `CCN(CC)C(=O)Oc1ccc(-c2cc(=O)c3c(OC(C)=O)c(OC(C)=O)c(OC(C)=O)cc3o2)cc1` [N,N-diethylcarbamic acid-4-[5,6,7-tris(acetyloxy)-4-oxo-4H-1-benzopyran-2-yl]phenyl ester (7k)]: the figures for the IC50 (at Acetylcholinesterase; in assay [1]) were 1.5 µM and 50.3 µM, respectively. For `CCN(CC)C(=O)Oc1ccc(-c2cc(=O)c3c(O)c(OC(C)=O)c(OC(C)=O)cc3o2)cc1` [N,N-diethylcarbamic acid-4-[6,7-bis(acetyloxy)-5-hydroxy-4-oxo-4H-1-benzopyran-2-yl]phenyl ester (7l)] the same measures were 2 µM and 62.1 µM. Regarding `CN(C)C(=O)Oc1ccc(-c2cc(=O)c3c(O)c(O)c(O)cc3o2)cc1` [N,N-dimethylcarbamic acid-4-(5,6,7-trihydroxy-4-oxo-4H-1-benzopyran-2-yl)phenyl ester (7a)], the IC50 against Acetylcholinesterase worked out at 6.3 µM; in assay [1] it was 32 µM. The like results for `CCN(C)C(=O)Oc1ccc(-c2cc(=O)c3c(O)c(O)c(O)cc3o2)cc1` [N-ethyl-N-methylcarbamic acid-4-(5,6,7-trihydroxy-4-oxo-4H-1-benzopyran-2-yl)phenyl ester (7d)] were, in that order, 2.7 µM and 30.5 µM.
